# Assay results from ChEMBL document CHEMBL1128701 (J Med Chem, 1995).
# Molecular target: T1, Progesterone receptor (Homo sapiens, UniProt P06401)
# T1 sequence (P06401 whole entry): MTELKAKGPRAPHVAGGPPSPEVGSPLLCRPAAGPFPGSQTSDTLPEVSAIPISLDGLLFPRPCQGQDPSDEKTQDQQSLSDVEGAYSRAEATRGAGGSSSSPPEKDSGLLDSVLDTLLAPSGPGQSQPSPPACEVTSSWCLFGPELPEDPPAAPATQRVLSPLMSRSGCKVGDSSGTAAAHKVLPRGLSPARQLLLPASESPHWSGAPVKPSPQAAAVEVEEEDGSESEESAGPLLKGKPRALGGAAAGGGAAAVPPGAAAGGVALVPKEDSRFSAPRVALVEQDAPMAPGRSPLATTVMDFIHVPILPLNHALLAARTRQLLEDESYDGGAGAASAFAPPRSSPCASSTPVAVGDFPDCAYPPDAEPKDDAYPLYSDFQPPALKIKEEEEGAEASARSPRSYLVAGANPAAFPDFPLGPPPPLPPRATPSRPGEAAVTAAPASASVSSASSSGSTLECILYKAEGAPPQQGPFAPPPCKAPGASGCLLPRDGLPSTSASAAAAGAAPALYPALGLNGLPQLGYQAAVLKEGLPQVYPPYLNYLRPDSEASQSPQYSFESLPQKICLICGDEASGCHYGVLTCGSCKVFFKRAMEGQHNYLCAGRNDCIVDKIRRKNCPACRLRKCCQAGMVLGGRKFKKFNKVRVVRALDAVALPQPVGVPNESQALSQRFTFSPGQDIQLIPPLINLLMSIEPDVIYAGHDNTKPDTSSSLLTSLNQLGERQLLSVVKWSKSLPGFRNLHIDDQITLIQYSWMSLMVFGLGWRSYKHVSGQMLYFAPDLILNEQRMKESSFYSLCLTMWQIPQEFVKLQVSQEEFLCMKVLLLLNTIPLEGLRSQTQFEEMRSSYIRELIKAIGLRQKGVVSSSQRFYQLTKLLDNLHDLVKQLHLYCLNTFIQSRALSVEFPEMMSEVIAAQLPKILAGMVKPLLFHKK
# Assay: Binding affinity against Progesterone receptor in human TE85 osteosarcoma cells was determined using (Z)-[125I]-17-alpha-(2-iodovinyl)-19-nor-testosterone as radioligand
row,Structure (SMILES),IC50
1,O=C1CCC(c2ccccc2)=NN1Cc1ccc(Cl)c(Cl)c1,170 nM
2,O=C(c1ccc(F)c(F)c1)N1CCCC(c2ccccc2)=N1,515 nM
3,O=C(c1ccc(Cl)c(C(F)(F)F)c1)N1CCCC(c2ccccc2)=N1,270 nM
4,CC(C)(C)c1ccc(C(=O)N2CCCC(c3ccccc3)=N2)cc1,> 1000 nM
5,CCc1ccc(C2=NN(C(=O)c3ccc(Cl)c(Cl)c3)CCC2)cc1,570 nM
6,CC1CC(c2ccccc2)=NN(C(=O)c2ccc(Cl)c(Cl)c2)C1 (centres undefined),98 nM
7,O=C(c1ccc(Cl)cc1)N1CCCC(c2ccccc2)=N1,521 nM
8,COc1ccc(C(=O)N2CCCC(c3ccccc3)=N2)cc1,> 1000 nM
9,O=S(=O)(c1ccc(Cl)c(Cl)c1)N1CCCC(c2ccccc2)=N1,> 1000 nM
10,O=C(c1ccc(Cl)c(Cl)c1)N1CCCC(c2ccc(F)cc2)=N1,48.2 nM

# Second part, the molecule after the results:
row,IC50,Structure (SMILES)
1,> 1000 nM,O=C(c1ccc(Cl)c(Cl)c1)N1CC=CC(c2ccccc2)=N1
2,38.2 nM,O=C(c1ccc(F)c(Br)c1)N1CCCC(c2ccccc2)=N1
3,> 1000 nM,Clc1ccc(CN2CCCC(c3ccccc3)=N2)cc1Cl
4,24 nM,CC1CCN(C(=O)c2ccc(Cl)c(Cl)c2)N=C1c1ccccc1 (centres undefined)
5,> 1000 nM,COc1ccc(C2=NN(C(=O)c3ccc(Cl)c(Cl)c3)CCC2)cc1
6,416 nM,Cc1ccc(C(=O)N2CCCC(c3ccccc3)=N2)cc1
7,75.3 nM,CC1(C)CC(c2ccccc2)=NN(C(=O)c2ccc(Cl)c(Cl)c2)C1
8,> 1000 nM,O=C(c1ccc(Br)cc1)N1CCCC(c2ccccc2)=N1
9,70.6 nM,O=C(c1cccc(Cl)c1)N1CCCC(c2ccccc2)=N1
10,17.5 nM,S=C(c1ccc(Cl)c(Cl)c1)N1CCCC(c2ccccc2)=N1
11,> 1000 nM,O=C(c1ccccc1)N1CCCC(c2ccccc2)=N1
12,84 nM,O=C(c1ccc(Cl)c(Cl)c1)N1CCCC(c2ccc(Cl)cc2)=N1
13,> 1000 nM,CCCCc1ccc(C2=NN(C(=O)c3ccc(Cl)c(Cl)c3)CCC2)cc1
14,62.4 nM,O=C(c1ccc(Cl)c(Cl)c1)N1CCCC(c2ccccc2)=N1
